# From patent US10563267B2, “Polymorphism biomarkers predict clinical outcomes of cancer patients receiving regorafenib” (University of Southern California, priority 2016, dated 2020)
# What was measured:
# cancer patients [1] = test: Hand foot skin reaction (HFSR) in cancer patients receiving regorafenib, by ethnicity; assay type: in vivo, human
# Experimental: HFSR of grade 3-4 are among the most common grade 3-4 […] reactions associated with a therapy with regorafenib or an equivalent thereof. In this example, single nucleotide polymorphisms (SNPs) of CCL5 were evaluated for their ability to predict the likelihood for a patient to experience HFSR from a therapy comprising an effective amount of regorafenib or an equivalent thereof.
# Genomic DNA was obtained from more than 200 cancer patients receiving regorafenib and analyzed by using PCR-based direct sequencing. SNPs in CCL5 were tested to discover that the rarity (<1%) of the genotype of (G/G) for the rs2280789 polymorphism and/or the rs3817655 polymorphism (the genotype of (G/G) for the rs2280789 polymorphism and/or the rs3817655 are seen in 10% in Asian (Japanese) and 1% in Caucasian (Italian)) relates to the significant ethnic difference in severe HFSR developed by Caucasian patients compared to Japanese patients (grade 3 HFSR 16% vs 33.8% respectively, p=0.003).
# cancer patients [2] = test: Clinical outcome (OS, PFS, tumor response) of cancer patients treated with regorafenib, by SNP genotype; assay type: in vivo, human
# Experimental: Further, single nucleotide polymorphisms (SNPs) of genes involved in various angiogenic pathways were evaluated for their ability to predict clinical outcomes for cancer patient treated with a therapy comprising regorafenib or an equivalent thereof.
# Still further, combinations of single nucleotide polymorphisms (SNPs) of genes involved in various angiogenic pathways were evaluated for their ability to predict clinical outcomes for cancer patient treated with a therapy comprising regorafenib or an equivalent thereof.
# Genomic DNA was obtained from cancer patients in therapies comprising regorafenib or an equivalent thereof and analyzed by using PCR-based direct sequencing. Multiple functional SNPs in 11 genes (NOTCH1, IL8, CCL5, DLL4, PLGF, ANG2, TIE1, PDGFRB, VEGFR2, EGFC and VEGFA) were tested.
# PCR and product sequencing were done using standard procedures. Uni- and multivariate analyses, adjusting for age, gender, rash and racial background, were carried out.
# [3] = VEGFR2 rs2071559 A/Variant + NOTCH1 rs3125001 C/C + ANG2 rs2916702 A/Variant carriers
# [4] = VEGFR2 rs2071559 A/Variant + NOTCH1 rs3125001 C/C + ANG2 rs2916702 G/G carriers
# [5] = VEGFR2 rs2071559 A/Variant + NOTCH1 rs3125001 T/Variant carriers
# [6] = VEGFR2 rs2071559 A/variant carriers (N=111)
structure (smiles),measurement,setting,value
CNC(=O)c1cc(Oc2ccc(NC(=O)Nc3ccc(Cl)c(C(F)(F)F)c3)c(F)c2)ccn1 [regorafenib],grade 3 HFSR,cancer patients [1]; Caucasian (Italian) patients receiving regorafenib,16%
same,grade 3 HFSR,cancer patients [1]; Japanese patients receiving regorafenib,33.8%
same,HR for OS,"cancer patients [2]; TIE1 A/A + Plgf C/C vs TIE1 G/Variant carriers (HR reference), multivariate",0.22
same,HR for OS,"cancer patients [2]; TIE1 A/A + Plgf T/Variant vs TIE1 G/Variant carriers (HR reference), multivariate",0.79
same,median OS,cancer patients [2]; TIE1 rs7527092 A/A (N=41),4.7 months
same,median OS,cancer patients [2]; TIE1 rs7527092 A/A + Plgf rs2268614 C/C carriers (N=9),2.6 months
same,median OS,cancer patients [2]; TIE1 rs7527092 A/A + Plgf rs2268614 T/Variant carriers (N=32),5.8 months
same,HR for OS,"cancer patients [2]; TIE1 rs7527092 A/A vs G/variant carriers, multivariate, p=0.0063",1.72
same,HR for OS,"cancer patients [2]; TIE1 rs7527092 A/A vs G/variant carriers, univariate, p=0.0303",1.49
same,median OS,cancer patients [2]; TIE1 rs7527092 G/Variant carriers (N=109),7.8 months
same,median OS,cancer patients [2]; TIE1 rs7527092 G/variant carriers (N=106),7.8 months
same,patients non-responsive (tumor response),cancer patients [2]; [3],7
same,patients responsive (tumor response),cancer patients [2]; [3],16
same,patients non-responsive (tumor response),cancer patients [2]; [4],6
same,patients responsive (tumor response),cancer patients [2]; [4],2
same,patients non-responsive (tumor response),cancer patients [2]; [5],49
same,patients responsive (tumor response),cancer patients [2]; [5],25
same,median OS,cancer patients [2]; [6],7.0 months
same,median PFS,cancer patients [2]; [6],2.3 months
same,response (positive),cancer patients [2]; [6],41%
same,median OS,cancer patients [2]; VEGFR2 rs2071559 G/G (N=39),4.7 months
same,median PFS,cancer patients [2]; VEGFR2 rs2071559 G/G (N=39),1.8 months
same,response (positive),cancer patients [2]; VEGFR2 rs2071559 G/G (N=39),18%
same,patients non-responsive (tumor response),cancer patients [2]; VEGFR2 rs2071559 G/G carriers,31
same,patients responsive (tumor response),cancer patients [2]; VEGFR2 rs2071559 G/G carriers,7
same,HR for PFS,"cancer patients [2]; VEGFR2 rs2071559 G/G vs A/variant carriers, multivariate, p=0.0197",1.59
same,HR for PFS,"cancer patients [2]; VEGFR2 rs2071559 G/G vs A/variant carriers, univariate, p=0.0250",1.49
same,HR for OS,"cancer patients [2]; VEGFR2 rs2071559 G/G vs A/variant carriers, univariate, p=0.0452",1.45
same,median PFS,cancer patients [2]; high-risk group: VEGFR2 rs2071559 G/G + NOTCH1 rs6563 A/A (N=15) together with G/G + NOTCH1 G/Variant + ANG2 rs2442599 A/A (N=11),1.7 months
same,median PFS,cancer patients [2]; low-risk group: VEGFR2 rs2071559 A/variant (N=111) together with G/G + NOTCH1 rs6563 G/Variant + ANG2 rs2442599 G/Variant (N=13),2.3 months
same,HR for PFS,"cancer patients [2]; tree model high-risk vs low-risk group (VEGFR2/NOTCH1/ANG2), multivariate, log-rank P<0.001",0.41
